Laboratory results taken from PMC10226046, “Prodrug Strategies for the Development of β-L-5-((E)-2-Bromovinyl)-1-((2S,4S)-2-(hydroxymethyl)-1,3-(dioxolane-4-yl))uracil (L-BHDU) against Varicella Zoster Virus (VZV)” (Journal of Medicinal Chemistry, 2023).

Key:
VZV-ORF57-Luc = test: microbe, parasite or virus in culture; assay type: cell-based, Varicella zoster virus; details: Human alphaherpesvirus 3, ARPE-19
VZV-ORF57-ΔTS = test: microbe, parasite or virus in culture; assay type: cell-based, Varicella zoster virus; details: Human alphaherpesvirus 3, ARPE-19
[1] = In vitro stability in mouse liver homogenates (LC-MS/MS); assay type: in vitro ADME, BALB/c mice; details: 37 °C; converted to L-BHDU and L-BHDU-MP
Experimental: The antiviral efficacy of POM-L-BHDU-MP prompted us to perform pharmacokinetic studies on POM-L-BHDU-MP in vitro and in vivo. […] In liver homogenates, POM-L-BHDU-MP converted to L-BHDU and L-BHDU-MP (Figure 4). POM-L-BHDU-MP incubated with homogenized mouse liver was unstable and converted to L-BHDU and L-BHDU-MP. The concentration of L-BHDU increased steadily, reaching 1.9 μg/mL after 60 min. L-BHDU-MP appeared rapidly and reached maximal concentration (4.6 μg/mL) after 4 min, which is 32-fold higher than the corresponding L-BHDU concentration. Thus, POM-L-BHDU-MP likely converts rapidly into L-BHDU-MP and more slowly into L-BHDU in the liver.
Untreated BALB/c mice were euthanized, and their livers were immediately removed. […] The concentration of POM-L-BHDU-MP, L-BHDU, and L-BHDU-MP were determined using LC-MS/MS.
The primary stock solutions for the calibration were prepared at 0.5 mg/mL for L-BHDU, 1 mg/mL for POM-L-BHDU-MP, and 1 mg/mL for L-BHDU-MP. […] The samples were analyzed in a negative ESI mode. […] The collision gas was argon with a collision cell pressure of 3.18 × 10^–3 mbar, and the collision energy was 30 V. A multiple reaction monitoring (MRM) function was used to quantify the analytes using the following ion transitions: 266.1 → 223.2 for AZT (ISTD), 318.7 → 80.7 for L-BHDU, 398.7 → 180.9 for L-BHDU-MP, and 626.6 → 325 for POM-L-BHDU-MP.

SMILES: CC(C)(C)C(=O)OCOP(=O)(OCOC(=O)C(C)(C)C)OC[C@H]1OC[C@@H](n2cc(/C=C/Br)c(=O)[nH]c2=O)O1 [POM-L-BHDU-MP (41), Bis(POM) Prodrug of L-BHDU-MP]
- EC50 (VZV-ORF57-Luc): 51 nM
- EC50 (VZV-ORF57-ΔTS): 1.2 nM
- stability in homogenized mouse liver [1]: unstable
